According to ChEMBL document CHEMBL5729664, “Substituted pyridine derivatives as SARM1 inhibitors” (2023):

Assay: Biological Assay: Each reaction was run at a volume of 20 μL containing 50 μM compound (dissolved in DMSO; final concentration of DMSO is 1% v/v), 40 nM human SARM1 (50-724), 0.3 mM NMN, 20 μM NAD, 1 mM TCEP, 25 mM HEPES pH 7.4, 10 mM KCl and 10 mM MgCl2. The reaction was incubated at room temperature for 60 minutes and quenched with 20 μL of 0.4% formic acid. The samples were run on Agilent HPLC 1260 Infinity II with Synergi 2.5 μM Fusion-RP 100 Å (100×3.0 mm) LC column from Phenomenex. Total run time for each sample was 4 minutes. The run was isocratic with 1.5% methanol in 40 mM ammonium acetate pH 6.0. Samples were run at a flow rate of 0.8 ml/min at 55° C. Peak areas of NAD and NAM were determined using OpenLAB CDS (Chem Station edition) software. For dose-response, the compound was diluted serially 1:3 in DMSO and added to the reaction starting at a final compound concentration of 100 μM in 1% DMSO.

Row | Compound | IC50
1 | O[C@H](C1N=CC(Cc2ccncc2F)=N1)C(F)(F)F (stereo partly drawn) | in the range around 5.5 µM
2 | N[C@@H](c1nc(Cc2ccncc2)c[nH]1)C(F)(F)F | < 1 µM
3 | CNC(c1ncc(Cc2ccncc2)[nH]1)C(F)(F)F (stereo not drawn) | in the range around 5.5 µM
4 | O[C@H](c1ncc(Cc2ccncc2)[nH]1)C(F)(F)F | < 1 µM
5 | C[C@@H](c1ccncc1)c1c[nH]c([C@@H](O)C(F)(F)F)n1 | < 1 µM
6 | CC(c1ccncc1)c1c[nH]c(CC(F)(F)F)n1 (stereo not drawn) | < 1 µM
7 | O[C@@H](c1ncc(Cc2ccncc2)[nH]1)C(F)(F)F | < 1 µM
8 | OC(c1nc(Cc2ccncc2Cl)c[nH]1)C(F)(F)F (stereo not drawn) | < 1 µM
9 | NC(c1nc(Cc2ccncc2)cs1)C(F)(F)F (stereo not drawn) | in the range around 55 µM
10 | CN(C)C(c1ncc(Cc2ccncc2)[nH]1)C(F)(F)F (stereo not drawn) | in the range around 55 µM
11 | Cc1cnccc1Cc1cnc([C@@H](O)c2cncs2)[nH]1 (single isomer, unassigned) | in the range around 55 µM
12 | CC(O)(c1nc(Cc2ccncc2)c[nH]1)C(F)(F)F (stereo not drawn) | in the range around 5.5 µM
13 | Cc1cnccc1Cc1c[nH]c([C@H](O)C(F)(F)F)n1 | < 1 µM
14 | CN[C@@H](c1ncc(Cc2ccncc2)[nH]1)C(F)(F)F | in the range around 5.5 µM
15 | OC(c1ncc(Cc2ccncc2)[nH]1)(c1cncs1)C(F)(F)F (stereo not drawn) | in the range around 55 µM
16 | C[C@H](c1ccncc1)c1c[nH]c(CC(F)(F)F)n1 | < 1 µM
17 | O[C@H](c1ncc(Cc2ccncc2)[nH]1)c1nccs1 | in the range around 5.5 µM
18 | OC(C1N=CC(Cc2ccncc2F)=N1)C(F)(F)F (stereo not drawn) | < 1 µM
19 | C[C@@H](c1ccncc1)c1c[nH]c([C@H](O)C(F)(F)F)n1 | in the range around 55 µM
20 | CC(c1ccncc1)c1ccc(CC(F)(F)F)[nH]1 (stereo not drawn) | in the range around 5.5 µM
21 | OC(c1ccccn1)c1ncc(Cc2ccncc2)[nH]1 (stereo not drawn) | in the range around 5.5 µM
22 | O[C@@H](c1nc(Cc2ccncc2)c[nH]1)c1cncs1 | < 1 µM
23 | COC(c1ncc(Cc2ccncc2)[nH]1)C(F)(F)F (stereo not drawn) | in the range around 5.5 µM
